Experimental data from article PMC11161652, “ASXLs binding to the PHD2/3 fingers of MLL4 provides a mechanism for the recruitment of BAP1 to active enhancers” (Nature Communications, 2024).
Ends that are not written are not given here.

Tests used:
MLL4PHD2/3 D285K = molecular target: T1, MLL4PHD2/3 D285K (Homo sapiens, UniProt O14686, D285K); assay: NMR titration binding, D285K MLL4PHD2/3; settings: 1H,15N HSQC titration, 0.1 mM protein, 20 mM Tris pH 6.8, 150 mM NaCl, 3 mM DTT, 7% D2O, 298 K, mean ± SD, n = 3
T1 construct: MLL4 (aa 227-324); GST (N, cleaved yes); made in house; host or cells: E. coli BL21-CodonPlus
Protocol: (§1) All constructs were expressed in BL21-CodonPlus competent cells.
Normalized chemical shift changes were calculated using the equation Δδ=△δH^2+△sn/5^2 (2), where Δδ is the change in chemical shift in parts per million (ppm).

MLL4PHD2/3 K274E = molecular target: T2, MLL4PHD2/3 K274E (Homo sapiens, UniProt O14686, K274E); assay: NMR titration binding, K274E MLL4PHD2/3; settings: 1H,15N HSQC titration, 0.1 mM protein, 20 mM Tris pH 6.8, 150 mM NaCl, 298 K
T2 construct: MLL4 (aa 227-324); GST (N, cleaved yes); made in house; host or cells: E. coli BL21-CodonPlus
Protocol: as §1
(§2) For NMR titration experiments, ^1H,^15N HSQC spectra of 0.1 mM uniformly ^15N-labeled WT or mutated MLL4PHD2/3, MLL3PHD2/3 or MLL3PHD4 were recorded while WT or mutated ASXL2 (aa 650-670, 650-664, 656-670) and ASXL3 (aa 1047-1067) peptides (synthesized by SynPeptide) or MLL3PHD2/3 were added stepwise. All experiments were carried out in 20 mM Tris buffer (pH 6.8), 150 mM NaCl, and 3 mM DTT, containing 7% D2O. The dissociation constants (Kds) were determined by a nonlinear least-squares analysis in GraphPad Prism using the equation:1 △δ=△δmaxL+P+Kd−L+P+Kd^2−4PL/2P where [L] is concentration of the peptide, [P] is concentration of the protein, Δδ is the observed chemical shift change, and Δδmax is the normalized chemical shift change at saturation. Normalized chemical shift changes were calculated using the equation Δδ=△δH^2+△sn/5^2 (2), where Δδ is the change in chemical shift in parts per million (ppm).

MLL4PHD2/3 V290K = molecular target: T3, MLL4PHD2/3 V290K (Homo sapiens, UniProt O14686, V290K); assay: NMR titration binding, V290K MLL4PHD2/3; settings: 1H,15N HSQC titration, 0.1 mM protein, 20 mM Tris pH 6.8, 150 mM NaCl, 298 K
T3 construct: MLL4 (aa 227-324); GST (N, cleaved yes); made in house; host or cells: E. coli BL21-CodonPlus
Protocol: as §1, §2

MLL4PHD2/3 D257K/D285K = molecular target: T4, MLL4PHD2/3 D257K/D285K (Homo sapiens, UniProt O14686, D257K/D285K); assay: NMR titration binding, D257K/D285K MLL4PHD2/3; settings: 1H,15N HSQC titration, 0.1 mM protein, 20 mM Tris pH 6.8, 150 mM NaCl, 298 K
T4 construct: MLL4 (aa 227-324); GST (N, cleaved yes); made in house; host or cells: E. coli BL21-CodonPlus
Protocol: as §1, §2

MLL4PHD2/3 L256K = molecular target: T5, MLL4PHD2/3 L256K (Homo sapiens, UniProt O14686, L256K); assay: NMR titration binding, L256K MLL4PHD2/3; settings: 1H,15N HSQC, 0.1 mM protein, 20 mM Tris pH 6.8, 298 K
T5 construct: MLL4 (aa 227-324); GST (N, cleaved yes); made in house; host or cells: E. coli BL21-CodonPlus
Protocol: as §1, §2

MLL3PHD2/3 D372K/D400K = molecular target: T6, MLL3PHD2/3 D372K/D400K (Homo sapiens, UniProt Q8NEZ4, D372K/D400K); assay: NMR titration binding, D372K/D400K MLL3PHD2/3; settings: 1H,15N HSQC titration, 0.1 mM protein, 20 mM Tris pH 6.8, 150 mM NaCl, 298 K
T6 construct: human MLL3 (aa 342-439); GST (N, cleaved yes); made in house; host or cells: E. coli BL21-CodonPlus
Protocol: as §1, §2

T1 sequence (O14686 227-324 D285K): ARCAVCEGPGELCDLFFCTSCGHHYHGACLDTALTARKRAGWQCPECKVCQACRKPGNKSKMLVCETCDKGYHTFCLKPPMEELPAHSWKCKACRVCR
T3 sequence (O14686 227-324 V290K): as the sequence (O14686 227-324 D285K) above, with K59D, V64K counted along it
T6 sequence (Q8NEZ4 342-439 D372K/D400K): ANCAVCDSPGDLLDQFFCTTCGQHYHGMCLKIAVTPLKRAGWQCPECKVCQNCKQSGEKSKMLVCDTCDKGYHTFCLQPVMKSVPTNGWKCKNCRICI
T2 sequence (O14686 227-324 K274E): as the sequence (O14686 227-324 D285K) above, with K48E, K59D counted along it
T4 sequence (O14686 227-324 D257K/D285K): as the sequence (O14686 227-324 D285K) above, with D31K counted along it
T5 sequence (O14686 227-324 L256K): as the sequence (O14686 227-324 D285K) above, with L30K, K59D counted along it

With NRTGARTLADIKAKAQLVKAQ [ASXL2 650-670] the Kd (MLL4PHD2/3 D285K) was 1700 µM, the Kd (MLL4PHD2/3 K274E) was “no binding” and the Kd (MLL4PHD2/3 V290K) was “no binding”. For the same sequence, the Kd (MLL4PHD2/3 D257K/D285K) was “no binding”, the Kd (MLL4PHD2/3 L256K) was “unfolded” and the Kd (MLL3PHD2/3 D372K/D400K) was “no binding”.
